According to patent US6515025B2, “Use of ethynyl alanine amino diol compounds to inhibit enzymatic conversion of angiotensinogen to angiotensin I” (Pharmacia Corporation, priority 1991, dated 2003):
Values joined by “and” are separate entries in the source; they are usually repeats but may differ in a detail not shown here. Equal values may be shown once. Read-outs that look alike come from different tables or passages of the source.

Legend:
[1] = Oral bioavailability studies in dogs (plasma concentration by bioassay); type: in vivo; details: dog
Description: (§1) The bioavailability in marmosets and dogs was determined by sampling the blood via the femoral vein at various time points after administering the renin inhibitor compounds of the invention in polyethylene glycol 400 at an intragastric dose of 10 mg/kg or at an intravenous dose of 1 mg/kg. Compound concentration in plasma was determined using the bioassay technique described below. The percent bioavailability was calculated by dividing the area under the concentration-vs.-time curve obtained from the intragastric experiment by the area under the concentration-vs.-time curve obtained from the intravenous experiment (adjusting for different doses), and multiplying the result by 100%. The bioavailibility of Example 1 compound is 27% in marmosets and 33% in dogs.
(§2) Renin inhibitor plasma concentrations were determined by a bioassay. The plasma samples were extracted with acetonitrile and the extract was evaporated to dryness under nitrogen. Residue was dissolved in 4% bovine serum albumin containing 0.9% NaCl and 5% EDTA. The dissolved residue (0.1 ml) was incubated with a reaction mixture containing human plasma (0.12 ml), 5% phenylmethysulfonylfluoride (1.2 ul), 10% neomycin (2.4 ul), 0.5 M TES buffer (pH 7.4, 24 ul), and 0.6 mU/ml recombinant human renin (1000 U/mg, 50 ul) at 37° C. for 90 minutes. The renin activity was determined by a standard angiotensin I radioimmunoassay (New England Nuclear Corp.). The amount of test compound in the plasma was determined by comparing the extent of inhibition of renin activity with that produced by a known amount of test compound added to plasma and analyzed above.

[2] = Oral bioavailability studies in marmosets (plasma concentration by bioassay); type: in vivo; details: marmoset, IG at 10 mg/kg, Test Run A, 30 min, individual animals; 10 mg/kg
Description: as §1, §2

## C#CC[C@H](NC(=O)C(CC(=O)N(C)CCN(C)C)Cc1ccccc1)C(=O)NC(CC1CCCCC1)[C@@H](O)C(O)CC(C)C (relative stereo) [Example 1, N1-[1R*-[[[1S,1R*-(cyclohexylmethyl)-2S*,3R*-dihydroxy-5-methylhexyl]amino]carbonyl]-3-butynyl]-N4-[2-(dimethylamino)ethyl]-N4-methyl-2S*-(phenylmethyl)butanediamide]
[1]; IG 10 mg/kg vs IV 1 mg/kg
  Oral (%) Bioavail, Mean ± SE: 33.1 ± 3.8%
[1]; IG 10 mg/kg vs IV 1 mg/kg, individual animals
  Oral (%) Bioavail: 35.8% and 25.6% and 38.0%
[1]; IG at 10 mg/kg, 15 min, individual animals, 10 mg/kg
  Estimated Plasma Concentration: 105.7 ng/mL and <2.0 ng/mL and 265.6 ng/mL
[1]; IG at 10 mg/kg, 30 min, individual animals, 10 mg/kg
  Estimated Plasma Concentration: 495.9 ng/mL and 330.4 ng/mL and 864.7 ng/mL
[1]; IG at 10 mg/kg, 1 hr, individual animals, 10 mg/kg
  Estimated Plasma Concentration: 859.6 ng/mL
[1]; IG at 10 mg/kg, 2 hr, individual animals, 10 mg/kg
  Estimated Plasma Concentration: 352.7 ng/mL and 554.5 ng/mL
[1]; IG at 10 mg/kg, 4 hr, individual animals, 10 mg/kg
  Estimated Plasma Concentration: 68.8 ng/mL and 130.3 ng/mL
[1]; IG at 10 mg/kg, 6 hr, individual animals, 10 mg/kg
  Estimated Plasma Concentration: 47.1 ng/mL and 72.4 ng/mL
[1]; IG at 10 mg/kg, 8 hr, individual animals, 10 mg/kg
  Estimated Plasma Concentration: 25.4 ng/mL and 45.4 ng/mL
[1]; IG at 10 mg/kg, 24 hr, individual animals, 10 mg/kg
  Estimated Plasma Concentration: 8.4 ng/mL and 8.0 ng/mL
[1]; IV at 1 mg/kg, 2 min, individual animals, 1 mg/kg
  Estimated Plasma Concentration: 3284.4 ng/mL and 2982.7 ng/mL
[1]; IV at 1 mg/kg, 5 min, individual animals, 1 mg/kg
  Estimated Plasma Concentration: 680.9 ng/mL and 521.1 ng/mL
[1]; IV at 1 mg/kg, 10 min, individual animals, 1 mg/kg
  Estimated Plasma Concentration: 307.1 ng/mL and 218.0 ng/mL
[1]; IV at 1 mg/kg, 15 min, individual animals, 1 mg/kg
  Estimated Plasma Concentration: 144.4 ng/mL and 146.9 ng/mL
[1]; IV at 1 mg/kg, 30 min, individual animals, 1 mg/kg
  Estimated Plasma Concentration: 102.8 ng/mL and 122.5 ng/mL
[1]; IV at 1 mg/kg, 1 hr, individual animals, 1 mg/kg
  Estimated Plasma Concentration: 67.6 ng/mL and 50.0 ng/mL
[1]; IV at 1 mg/kg, 2 hr, individual animals, 1 mg/kg
  Estimated Plasma Concentration: 56.0 ng/mL and 69.8 ng/mL
[1]; IV at 1 mg/kg, 4 hr, individual animals, 1 mg/kg
  Estimated Plasma Concentration: 23.5 ng/mL
[1]; IV at 1 mg/kg, 6 hr, individual animals, 1 mg/kg
  Estimated Plasma Concentration: 10.2 ng/mL and 13.5 ng/mL
[1]; IV at 1 mg/kg, 8 hr, individual animals, 1 mg/kg
  Estimated Plasma Concentration: 4.9 ng/mL and 6.1 ng/mL
[1]; IV at 1 mg/kg, 24 hr, individual animals, 1 mg/kg
  Estimated Plasma Concentration: 1.5 ng/mL and 1.3 ng/mL
[1]; individual animals
  Vd: 8.7 L/kg and 8.3 L/kg
  t1/2: 4.4 h and 4.3 h
[1]; plasma, dogs, read-out: terminal half-life (converted)
  half-life: 4.7 h
[1]; plasma, dogs, read-out: volume of distribution
  Vd: 9.5 L/kg
[1]; plasma, individual animals, read-out: Vd
  Vd: 11.5 L/kg
[1]; plasma, individual animals, read-out: t1/2 (converted)
  half-life: 5.3 h
[1]; plasma, iv, 1 mg/kg, IV at 1 mg/kg, 2 min, individual animals, read-out: Estimated Plasma Concentration
  concentration at 2 min: 2420 ng/mL
[1]; plasma, iv, 1 mg/kg, IV at 1 mg/kg, 2 min, read-out: Estimated Plasma Concentration, Mean ± SE
  concentration at 2 min: 2890 ± 254 ng/mL
[1]; plasma, iv, 1 mg/kg, IV at 1 mg/kg, 5 min, individual animals, read-out: Estimated Plasma Concentration
  concentration at 5 min: 613 ng/mL
[1]; plasma, iv, 1 mg/kg, IV at 1 mg/kg, 5 min, read-out: Estimated Plasma Concentration, Mean ± SE
  concentration at 5 min: 605 ± 46.3 ng/mL
[1]; plasma, iv, 1 mg/kg, IV at 1 mg/kg, 10 min, individual animals, read-out: Estimated Plasma Concentration
  concentration at 10 min: 299 ng/mL
[1]; plasma, iv, 1 mg/kg, IV at 1 mg/kg, 10 min, read-out: Estimated Plasma Concentration, Mean ± SE
  concentration at 10 min: 275 ± 28.4 ng/mL
[1]; plasma, iv, 1 mg/kg, IV at 1 mg/kg, 15 min, individual animals, read-out: Estimated Plasma Concentration
  concentration at 15 min: 218 ng/mL
[1]; plasma, iv, 1 mg/kg, IV at 1 mg/kg, 15 min, read-out: Estimated Plasma Concentration, Mean ± SE
  concentration at 15 min: 170 ± 24.1 ng/mL
[1]; plasma, iv, 1 mg/kg, IV at 1 mg/kg, 30 min, individual animals, read-out: Estimated Plasma Concentration
  concentration at 30 min: 145 ng/mL
[1]; plasma, iv, 1 mg/kg, IV at 1 mg/kg, 30 min, read-out: Estimated Plasma Concentration, Mean ± SE
  concentration at 30 min: 123 ± 12.1 ng/mL
[1]; plasma, iv, 1 mg/kg, IV at 1 mg/kg, 1 hr, individual animals, read-out: Estimated Plasma Concentration
  concentration at 1 h: 70.4 ng/mL
[1]; plasma, iv, 1 mg/kg, IV at 1 mg/kg, 1 hr, read-out: Estimated Plasma Concentration, Mean ± SE
  concentration at 1 h: 62.7 ± 6.4 ng/mL
[1]; plasma, iv, 1 mg/kg, IV at 1 mg/kg, 2 hr, individual animals, read-out: Estimated Plasma Concentration
  concentration at 2 h: 48.8 ng/mL
[1]; plasma, iv, 1 mg/kg, IV at 1 mg/kg, 2 hr, read-out: Estimated Plasma Concentration, Mean ± SE
  concentration at 2 h: 58.2 ± 6.2 ng/mL
[1]; plasma, iv, 1 mg/kg, IV at 1 mg/kg, 4 hr, individual animals, read-out: Estimated Plasma Concentration
  concentration at 4 h: 18.6 ng/mL
[1]; plasma, iv, 1 mg/kg, IV at 1 mg/kg, 4 hr, read-out: Estimated Plasma Concentration, Mean ± SE
  concentration at 4 h: 21.9 ± 1.6 ng/mL
[1]; plasma, iv, 1 mg/kg, IV at 1 mg/kg, 6 hr, individual animals, read-out: Estimated Plasma Concentration
  concentration at 6 h: 10.1 ng/mL
[1]; plasma, iv, 1 mg/kg, IV at 1 mg/kg, 6 hr, read-out: Estimated Plasma Concentration, Mean ± SE
  concentration at 6 h: 11.3 ± 1.1 ng/mL
[1]; plasma, iv, 1 mg/kg, IV at 1 mg/kg, 8 hr, individual animals, read-out: Estimated Plasma Concentration
  concentration at 8 h: 6.4 ng/mL
[1]; plasma, iv, 1 mg/kg, IV at 1 mg/kg, 8 hr, read-out: Estimated Plasma Concentration, Mean ± SE
  concentration at 8 h: 5.8 ± 0.5 ng/mL
[1]; plasma, iv, 1 mg/kg, IV at 1 mg/kg, 24 hr, individual animals, read-out: Estimated Plasma Concentration
  concentration at 24 h: 2.5 ng/mL
[1]; plasma, iv, 1 mg/kg, IV at 1 mg/kg, 24 hr, read-out: Estimated Plasma Concentration, Mean ± SE
  concentration at 24 h: 1.8 ± 0.4 ng/mL
[1]; plasma, oral, 10 mg/kg, IG at 10 mg/kg, 15 min, read-out: Estimated Plasma Concentration, Mean ± SE
  concentration at 15 min: 128 ± 77.2 ng/mL
[1]; plasma, oral, 10 mg/kg, IG at 10 mg/kg, 30 min, read-out: Estimated Plasma Concentration, Mean ± SE
  concentration at 30 min: 564 ± 158 ng/mL
[1]; plasma, oral, 10 mg/kg, IG at 10 mg/kg, 1 hr, individual animals, read-out: Estimated Plasma Concentration
  concentration at 1 h: 678 ng/mL
[1]; plasma, oral, 10 mg/kg, IG at 10 mg/kg, 1 hr, read-out: Estimated Plasma Concentration, Mean ± SE
  concentration at 1 h: 799 ± 60.5 ng/mL
[1]; plasma, oral, 10 mg/kg, IG at 10 mg/kg, 2 hr, individual animals, read-out: Estimated Plasma Concentration
  concentration at 2 h: 599 ng/mL
[1]; plasma, oral, 10 mg/kg, IG at 10 mg/kg, 2 hr, read-out: Estimated Plasma Concentration, Mean ± SE
  concentration at 2 h: 502 ± 75.8 ng/mL
[1]; plasma, oral, 10 mg/kg, IG at 10 mg/kg, 4 hr, individual animals, read-out: Estimated Plasma Concentration
  concentration at 4 h: 123 ng/mL
[1]; plasma, oral, 10 mg/kg, IG at 10 mg/kg, 4 hr, read-out: Estimated Plasma Concentration, Mean ± SE
  concentration at 4 h: 110 ± 20.9 ng/mL
[1]; plasma, oral, 10 mg/kg, IG at 10 mg/kg, 6 hr, individual animals, read-out: Estimated Plasma Concentration
  concentration at 6 h: 66.9 ng/mL
[1]; plasma, oral, 10 mg/kg, IG at 10 mg/kg, 6 hr, read-out: Estimated Plasma Concentration, Mean ± SE
  concentration at 6 h: 62.1 ± 7.7 ng/mL
[1]; plasma, oral, 10 mg/kg, IG at 10 mg/kg, 8 hr, individual animals, read-out: Estimated Plasma Concentration
  concentration at 8 h: 33.5 ng/mL
[1]; plasma, oral, 10 mg/kg, IG at 10 mg/kg, 8 hr, read-out: Estimated Plasma Concentration, Mean ± SE
  concentration at 8 h: 34.8 ± 5.8 ng/mL
[1]; plasma, oral, 10 mg/kg, IG at 10 mg/kg, 24 hr, individual animals, read-out: Estimated Plasma Concentration
  concentration at 24 h: 6.2 ng/mL
[1]; plasma, oral, 10 mg/kg, IG at 10 mg/kg, 24 hr, read-out: Estimated Plasma Concentration, Mean ± SE
  concentration at 24 h: 7.5 ± 0.7 ng/mL
[1]; plasma, oral, dogs, IG 10 mg/kg vs IV 1 mg/kg
  bioavailability: 33%
[1]; plasma, read-out: Vd, Mean ± SE
  Vd: 9.5 ± 1 L/kg
[1]; plasma, read-out: t1/2, Mean ± SE (converted)
  half-life: 4.7 ± 0.3 h
[2]
  Plasma Concentrations: 7258 ng/mL and 9322 ng/mL
